One may read the IC50 as the concentration that gives 50% inhibition. Read a low IC50 as greater potency in that assay. In general, inhibition refers to the relative decrease from the control value, in per cent. Higher therefore signals a response far below the control.

Structures are written as SMILES.

For the first assay, the system named is MAPK phosphorylation in PANC-1 pancreatic cancer cell line. As to the kind of experiment: MAPK cell-based phosphorylation assay (cell-direct ELISA, EGF stimulation). Particulars: Homo sapiens. Here is the method:
Cell lines: Tumor-derived pancreatic cancer cell lines PANC-1 were purchased from ATCC and were maintained according to ATCC recommendation.
Method: Cells were plated at 7500 cells/well density in 96-wells plate, starved over night, and the small molecules to be tested were added to the cells in the final concentration of 30 μM with 0.3% DMSO for 6 hours incubation at 37° C. For IC50 value determination, serial dilutions of compounds were added to cells under the same conditions. Next, cells were stimulated with 1.5 ng/ml EGF for 15 min. followed by cell fixation with 4% Formaldehyde in PBS at RT for 20 min. Phosphorylation level of MAPK was determined by Cell-direct ELISA.
Cell-direct ELISA: For each well, cells were permeabilized with PBS-Triton 0.1%, quenched with H2O2 0.6% in PBS-Triton 0.1%, and probed with anti-phospho-MAPK antibodies (R&D Systems) followed by HRP-conjugated secondary antibody (Jackson Immunoresearch, West Grove, Pa.). Next, a solution 50 μM of the fluorescent substrate AmpliFlu Red (Sigma) was added and incubated at RT for 20 min. At the end of the incubation time, fluorescence was measured at 595 nm on a microplate reader (AF2200; Eppendorf, Inc., Hamburg, Germany).
On the technique in general: In an ELISA, binding on a coated surface is turned into a signal by an enzyme label.
In the case of `CC1CN(c2ccccc2)CCN1C(=O)c1csc2c(O)nc(-c3ccccn3)nc12` (stereo not drawn) [drawing 1143], the IC50 was greater than 30 µM. The same measure, in the same setting: the value for `Cc1ccccc1N1CCN(C(=O)c2csc3c(O)nc(-c4ccccn4)nc23)CC1` [drawing 1123] was greater than 30 µM.

Staying with this assay, now noted: Homo sapiens, * = tested at 10 μM.
Turning to `COc1ccc(F)cc1-c1csc2c(O)nc(-c3ccccn3)nc12` [drawing 1213], the inhibition at 10 µM was 25 to 50%. Regarding `Oc1nc(-c2ccccn2)nc2c(-c3ccc4c(c3)OCO4)csc12` [drawing 1218], the inhibition at 10 µM lay in the range of 76 to 100%. Compound `COCCNc1nc(-c2nccn2C)nc2sc(-c3ccccc3)c(-c3ccccc3)c12` [drawing 1295] yielded an inhibition at 10 µM of 76 to 100%. `Cc1sc2c(O)nc(-c3ccccn3)nc2c1-c1ccccc1` [drawing 1241] showed an inhibition at 10 µM of 76 to 100%. Same read-out and setting: the value for `Oc1nc(-c2ccccn2)nc2c(C3CCC3)csc12` [drawing 1250] was 76 to 100%. The same measure, in the same setting: under `COC(=O)c1c(C)sc2c(O)nc(-c3ccccn3)nc12` [drawing 1247] stands 1 to 25%. Same read-out and setting: under `Cn1ccnc1-c1nc(O)c2scc(-c3ccccc3Cl)c2n1` [drawing 1375] stands 25 to 50%; under `Cn1cnc(-c2nc(O)c3c(-c4ccccc4)c(-c4ccncc4)sc3n2)c1` [drawing 1288], 25 to 50%. The compound `COCCNc1nc(-c2nccn2C)nc2sc(-c3ccccc3)c(-c3ccc(OC)cc3)c12` [drawing 1349] came in with an inhibition at 10 µM of 76 to 100%. On the same count and under the same terms, the value for `Oc1nc(-c2ccccn2)nc2c(C3CCCCC3)csc12` [drawing 1272] was 25 to 50%; that for `Oc1nc(-c2ccccn2)nc2c(-c3cc(F)ccc3OC(F)F)csc12` [drawing 1202] was 1 to 25%.

Regarding `COc1cnc(CNC(=O)c2c(C)sc3c(O)nc(-c4ccccn4)nc23)[nH]c1=O` [drawing 1283], at 10 µM the inhibition was 0%. Still for that read-out and setting: the value for `COc1ccc(CCNC(=O)c2csc3nc(-c4ccccn4)nc(N4CCS(=O)(=O)CC4)c23)cn1` [drawing 1195] was 1 to 25%; that for `NC(=O)C1CCCN1C(=O)c1cccc(-c2cc3nc(N)nc(O)c3s2)c1` (stereo not drawn) [drawing 1304] was 1 to 25%; that for `Oc1nc(-c2ccncn2)nc2c(-c3cccc(C(F)(F)F)c3)csc12` [drawing 1367] was 1 to 25%.

Regarding `Cn1ccnc1-c1nc(NCCOC2CC2)c2c(-c3ccccc3)c(-c3ccccc3)sc2n1` [drawing 1336], the inhibition at 10 µM was 76 to 100%.

Turning to `COCCNc1nc(-c2cn(C)cn2)nc2sc(-c3ccccc3)c(-c3ccccc3)c12` [drawing 1343], the inhibition at 10 µM is 76 to 100%. The same measure, in the same setting: the value for `Nc1nc(-c2ccccn2)nc2scc(Br)c12` [drawing 1231] was 1 to 25%.

Turning to `COCCNc1nc(-c2nccn2C)nc2sc(-c3ccc(OC)cc3)c(-c3ccccc3)c12` [drawing 1357], the inhibition at 10 µM is 51 to 75%. Compound `Oc1nc(-c2ccccn2)nc2c(-c3ccc4c(c3)CCCO4)csc12` [drawing 1238] showed an inhibition at 10 µM of 76 to 100%. The same measure, in the same setting: the value for `COC(=O)c1csc2nc(-c3ccccn3)nc(N)c12` [drawing 1232] was 25 to 50%; that for `Oc1nc(-c2ccccn2)nc2c(-c3ccc(C4CCC4)cc3)csc12` [drawing 1204] was 51 to 75%; that for `Cc1sc2c(N)nc(-c3ccccn3)nc2c1Br` [drawing 1230] was 1 to 25%. The compound `Nc1nc(-c2ccccn2)nc2ccsc12` [drawing 1187] returned an inhibition at 10 µM of 1 to 25%. The same measure, in the same setting: the value for `COc1nc(-c2ccccn2)nc(Oc2cccc(C(F)(F)F)c2)c1OC` [drawing 1312] was 0%; that for `Oc1nc(-c2ccccn2)nc2c(C3CCCC3)csc12` [drawing 1256] was 76 to 100%; that for `OCC1(c2ccc(-c3nc(-c4ccccn4)nc(O)c3Oc3ccccc3)cc2)CC1` [drawing 1294] was 1 to 25%.

`COc1cc(-c2csc3c(O)nc(-c4ccccn4)nc23)cnc1C(F)(F)F` [drawing 1222] registered an inhibition at 10 µM of 1 to 25%. `COCCNc1nc(-c2cn(C)cn2)nc2sc(-c3ccncc3)c(-c3ccccc3)c12` [drawing 1290]: the inhibition at 10 µM was found to be 0%.

`Cc1sc2c(O)nc(-c3ccccn3)nc2c1-c1ccccc1Cl` [drawing 1275] showed an inhibition at 10 µM of 76 to 100%. The same measure, in the same setting: under `Nc1nc(O)c2sc(-c3cccc(C(=O)NCc4cccc(O)n4)c3)cc2n1` [drawing 1306] stands 0%; under `CC(C)COc1ccc(-c2c(-c3ccccc3)sc3c(O)nc(-c4nccn4C)nc23)cn1` [drawing 1347], 51 to 75%; under `COC(=O)c1nc(-c2ccccn2)nc(O)c1O` [drawing 1307], 0%.

Take `Oc1nc(-c2ccccn2)nc2cc(-c3ccccc3)sc12` [drawing 1322]: the inhibition at 10 µM was 25 to 50%.

Compound `Oc1nc(-c2ccccn2)nc2c(-c3ccccc3C(F)F)csc12` [drawing 1221] had an inhibition at 10 µM of 76 to 100%. With `COc1nc(-c2ccccn2)nc2c(C3CCCCC3)csc12` [drawing 1251], the inhibition at 10 µM was 1 to 25%. In the case of `Cn1ccnc1-c1nc(O)c2c(-c3ccccc3)c(-c3ccccc3)sc2n1` [drawing 1296], the inhibition at 10 µM came to 0%. As for `O=C(NCCc1cnc(O)nc1)c1csc2nc(-c3ccccn3)nc(N3CCS(=O)(=O)CC3)c12` [drawing 1196], the inhibition at 10 µM lay in the range of 1 to 25%.

In turn, `CC(C)(O)c1ccc(-c2csc3c(O)nc(-c4ccccn4)nc23)c(F)c1` [drawing 1219] returned an inhibition at 10 µM of 76 to 100%. On the same count and under the same terms, the value for `COCCNc1nc(-c2cn(C)cn2)nc2sc(C)c(-c3ccccc3)c12` [drawing 1345] was 25 to 50%; that for `O=C(CCc1cncnc1)Nc1nc(-c2ccccn2)nc2sccc12` [drawing 1228] was 1 to 25%. The same measure, in the same setting: the value for `COc1ncc(CCC(=O)Nc2nc(-c3ccccn3)nc3sccc23)cn1` was 76 to 100%.

`Cc1sc2c(O)nc(-c3nccn3C)nc2c1-c1ccccc1` [drawing 1354] came in with an inhibition at 10 µM of 0%.

The same assay, now with this note: Homo sapiens, at 30 μM.
In turn, `O=C(Cc1cccc(F)c1)Nc1nc(-c2ccccn2)cs1` [drawing 1033] showed an inhibition at 30 µM of 1 to 25%. Still for that read-out and setting: under `O=C(c1ccccn1)N1CCCc2c(O)nc(-c3ccccn3)nc21` [drawing 1062] stands 1 to 25%; under `N#Cc1ccc(COCC(=O)Nc2nc(-c3ccccn3)nc3sccc23)cc1` [drawing 1161], 1 to 25%; under `O=C(CN1CCN(c2nc(-c3ccccn3)nc3scc(-c4ccccc4)c23)CC1)N1CCCC1` [drawing 1104], 1 to 25%.

With `O=C(c1csc2c(O)nc(-c3ccccn3)nc12)N1CCN(c2ccccc2F)CC1` [drawing 1121], the inhibition at 30 µM was in the range of 1 to 25%.

For `Cc1sc2nc(-c3ccccn3)nc(NCCc3nccn3C)c2c1-c1ccccc1` [drawing 1085], the inhibition at 30 µM is 1 to 25%. `Nc1nc(-c2ccccn2)nc2sccc12` [drawing 1180]: the inhibition at 30 µM lay in the range of 1 to 25%.

`CC(C(=O)Nc1ccnc(-c2ccccn2)n1)c1ccc(C#N)cc1` (stereo not drawn) [drawing 1158]: the inhibition at 30 µM is 1 to 25%. The compound `O=C(Nc1nnc(-c2ccccn2)[nH]1)c1ncoc1-c1cccs1` [drawing 1009] showed an inhibition at 30 µM of 25 to 50%.

In the case of `O=S(=O)(Oc1cc(C(F)(F)F)cc(C(F)(F)F)c1)N1CCc2ccccc2C1` [drawing 1052], the inhibition at 30 µM lay within 1 to 25%.

`c1ccc(-c2csc3nc(-c4ccccn4)nc(N4CCN(CC5CCCO5)CC4)c23)cc1` (stereo not drawn) [drawing 1088] yielded an inhibition at 30 µM of 1 to 25%. Regarding `Cc1ccc(CC(=O)Nc2nnc(-c3ccccn3)[nH]2)cn1` [drawing 1012], the inhibition at 30 µM fell in the range of 1 to 25%.

`O=C(c1csc2c(O)nc(-c3ccccn3)nc12)N1CCN(c2ccc(F)cc2)CC1` [drawing 1138] showed an inhibition at 30 µM of 1 to 25%. Still for that read-out and setting: under `CC1CN(c2ccccc2)CCN1C(=O)c1csc2c(O)nc(-c3ccccn3)nc12` (stereo not drawn) [drawing 1143] stands 51 to 75%; under `CS(=O)(=O)Cc1ccc(C(=O)Nc2nc(-c3ccccn3)cs2)cc1` [drawing 1029], 1 to 25%; under `COc1cc(CCN(C)C(=O)c2csc3nc(-c4ccccn4)nc(N4CCOCC4)c23)ccn1` [drawing 1155], 1 to 25%.

In turn, `O=c1nc(-c2ccccn2)[nH]c2c1sc1ccccc12` [drawing 1038] showed an inhibition at 30 µM of 76 to 100%. The same measure, in the same setting: under `COc1ccc2c(ccn2CC(=O)Nc2nnc(-c3ccccn3)[nH]2)c1` [drawing 1000] stands 1 to 25%.

`Cc1cnc(-c2ccccn2)nc1NC(=O)C(C)c1ccc(C#N)cc1` (stereo not drawn) [drawing 1160]: the inhibition at 30 µM lay in the range of 1 to 25%. Same read-out and setting: under `O=C(Nc1nnc(-c2ccccn2)[nH]1)C1CCCN(c2cnccn2)C1` (stereo not drawn) [drawing 1019] stands 1 to 25%; under `N#Cc1ccc(CC(=O)Nc2nc(-c3ccccn3)nc3sccc23)cc1` [drawing 1176], 76 to 100%; under `CC1CCN(C(=O)c2csc3c(O)nc(-c4ccccn4)nc23)CC1` [drawing 1065], 1 to 25%.

`COC(=O)C(C)CN(Cc1cc(Br)ccc1[N+](=O)[O-])C1CC1` (stereo not drawn) [drawing 1054] had an inhibition at 30 µM of 1 to 25%. On the same count and under the same terms, the value for `O=C(NCCc1ccc(O)nc1)c1csc2nc(-c3ccccn3)nc(N3CCOCC3)c12` [drawing 1168] was 1 to 25%; that for `COC(=O)c1ccc(C(=O)NCC2(c3ccccc3OC)CCCC2)nc1` [drawing 1048] was 1 to 25%.

As for `O=C(CCc1cnn(-c2ccccc2)c1)Nc1nnc(-c2ccccn2)[nH]1` [drawing 992], the inhibition at 30 µM was 25 to 50%.

`Cc1ccccc1N1CCN(C(=O)c2csc3c(O)nc(-c4ccccn4)nc23)CC1` [drawing 1123] displayed an inhibition at 30 µM of 25 to 50%.
